# Reference: publication PMC6748986, “Potent modulation of the CepR quorum sensing receptor and virulence in a Burkholderia cepacia complex member using non-native lactone ligands” (Scientific Reports, 2019)
# Experiments:
# [1] = target: T1, CepR (Burkholderia cenocepacia, UniProt B4EMD0); test: CepR agonism in E. coli β-galactosidase reporter (Ec-reporter) JLD271 [pJN105-cepR + pSC11-cepI]; format: cell-based, B. cenocepacia; settings: for Maximal Activation (%): activity for 100 μM C8-AHL set to 100%, error ±10%; for Act%: screening conc. 100 μM
# T1 sequence (B4EMD0 1-239): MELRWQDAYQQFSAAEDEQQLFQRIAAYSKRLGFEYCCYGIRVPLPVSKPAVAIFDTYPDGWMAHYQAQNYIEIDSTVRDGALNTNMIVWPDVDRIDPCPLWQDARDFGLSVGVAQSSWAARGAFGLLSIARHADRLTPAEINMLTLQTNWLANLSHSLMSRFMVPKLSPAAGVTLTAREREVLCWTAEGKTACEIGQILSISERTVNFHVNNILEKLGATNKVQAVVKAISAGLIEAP
# Source text: (§1) We began our study by screening the AHL library for CepR modulators using an E. coli-based two plasmid reporter system (Ec-reporter)[38]–[40]. Certain members of the Bcc harbor additional QS systems that are either AHL-based (e.g., BviI/BviR in B. vietnamiensis)[41] or diffusible signal factor (DSF)-based (B. cenocepacia)[42], and at least one member of the Bcc has multiple receptors that respond to C8-AHL (e.g., CepR and CepR2 in B. cenocepacia)[43]. Thus, we reasoned that using a CepR reporter in a heterologous background could simplify our initial analyses. We modified our previously reported E. coli-based two plasmid β-galactosidase reporter system to develop a CepR Ec-reporter (see Methods). The first plasmid, pJN105-cepR, contains CepR from B. cenocepacia under the control of the L-arabinose inducible pBAD promoter. A second plasmid contains a transcriptional fusion of lacZ to the cepI promoter region. The two plasmids were co-transformed into a QS mutant E. coli strain (JLD271 ∆sdiA) that lacks its LuxR-type receptor, SdiA. Using this reporter system, if an exogenously -added compound is able to interact with CepR, this will affect the protein’s interaction with the cepI promoter region and alter β-galactosidase production. Enzyme production, and thereby CepR activity, is then measurable via the degradation of a colorimetric substrate for β-galactosidase. Using this new Ec-reporter, we observed robust activity of CepR in response to its native ligand C8-AHL, with an EC50 of 5 nM (Table 1).
# We used the CepR Ec-reporter to perform a primary agonism screen at a single compound concentration (100 μM, or its solubility limit, indicated in Table S1). Thirty-one compounds displaying ≥70% agonistic activity in CepR (relative to C8-AHL) were identified and subjected to dose-response analyses using the Ec-reporter (Table I; see Table S2 for complete screening data and Fig. S3 for dose-response curves).
# (§2) E. coli β-galactosidase reporter assays (derived from ref.[63]) and reagents used to obtain primary screening and dose-response data were performed as previously described[22],[60],[64], with the following modifications: E. coli JLD271 (∆sdiA) was co-transformed iteratively with pSC11-cepI and pJN105-cepR via electroporation. A single colony was used to start overnight cultures in LB medium + ampicillin (100 μg/mL) + gentamicin (15 μg/mL). A 1:10 dilution of overnight culture was grown in fresh medium to OD600 = 0.25. A sterile solution of L-arabinose in water (27 mM final concentration) was added to induce protein expression, after which cells were plated in 96-well plates containing varying concentrations of compound (200 μL total volume).
# (§3) Cells were grown for 4 h, OD600 was read, 50 μL aliquots from each well were permeabilized in 200 μL Z Buffer, and then 150 μL of this mixture used to measure the cleavage of 25 μL of 4 mg/mL CPRG in phosphate buffered saline (PBS) at 37 °C until positive control wells developed a deep red color (~30 min). For all agonism assays, synthetic compound (100 μM) was screened alongside and compared to the native ligand, C8-AHL (100 μM). For all primary and dose-response antagonism assays, the concentration of native ligand utilized was 10 nM (approximately equal to twice its EC50 value). […] At least 3 separate trials were performed using unique cultures on separate days.
# [2] = target: T1, CepR; test: CepR antagonism in E. coli β-galactosidase reporter (Ec-reporter), competition against C8-AHL; format: cell-based, B. cenocepacia; settings: for Inh% (100-Act%): Table S3, Ec-reporter, screening conc. 100 μM, against 10 nM C8-AHL
# Source text: as §1
# To identify antagonists of CepR, we screened the AHL library (at 100 μM) in competition against the native ligand C8-AHL (at approximately twice its EC50 value, 0.01 μM) in the Ec-reporter. […] The active compounds were subjected to dose-response analyses in the Ec-reporter to obtain IC50 values and assess their relative potencies (Table 2; see Table S3 for complete screening data and Fig. S3 for dose-response curves). One general trend that we noted at the outset was the majority of the antagonists had acyl tails of similar or shorter overall length than CepR’s native ligand, C8-AHL. From this set, the strongest antagonists could be divided into two classes: (i) “short alkyl tail” AHLs or analogs thereof, and (ii) phenylacetanoyl HLs (PHLs). The discovery that the latter compounds were CepR antagonists was perhaps not surprising, as we have found substituted PHLs to strongly antagonize the majority of the LuxR-type receptors studied in our laboratory to date[22],[24],[29],[45],[46].
# as §2, §3
SMILES,"Act% ([1]; Table S2, Ec-reporter) [%]",Inh% (100-Act%) [2] [%],other results
"CCCCCCCCCCCCCC(=O)N[C@H]1CCOC1=O [Compound C14-AHL, tetradecanoyl L-homoserine lactone, reference compound]",49,-10,CepR agonism in words ([1]; Ec-reporter): inactive; Maximal Activation (%) ([1]; Ec-reporter): 49%
O=C(N[C@H]1CCOC1=O)c1cnn(-c2ccccc2)c1C(F)(F)F [Compound D9],14,0.0,
CCCCCCCCc1ccc(C(=O)N[C@H]2CCOC2=O)cc1 [Compound D13],4.2,38,
COc1cc(C(C)=O)ccc1OCC(=O)N[C@H]1CCOC1=O [Compound D16],3.5,0.0,
O=C(COc1ccc(Cl)cc1)N[C@H]1CCOC1=O [Compound E20],100,-20,"EC50 ([1]; Table S2, Ec-reporter): 0.21 µM"
O=C(N[C@H]1CCOC1=O)c1ccc([N+](=O)[O-])cc1 [Compound Q7],10,28,
"O=C(NCc1cc(Br)cc(Br)c1OC(=O)c1ccccc1[N+](=O)[O-])c1ccccc1Cl [TP-1P, reference compound]",54,0.0,
O=C(N[C@H]1CCOC1=O)c1ccc(Cl)cc1 [Compound Q4],49,-20,
COc1ccc(C(=O)N[C@H]2CCOC2=O)cc1 [Compound Q6],25,-20,
CCOc1ccc(C(=O)N[C@H]2CCOC2=O)cc1 [Compound R1],99,-20,"EC50 ([1]; Table S2, Ec-reporter): 0.18 µM"
O=C(CCc1ccco1)N[C@H]1CCOC1=O [Compound D2],70,0.0,
O=C(CCCc1c[nH]c2ccccc12)N[C@@H]1CCOC1=O [Compound B5],7.2,-30,
O=C(Cc1cccc([N+](=O)[O-])c1)NC1CCSC1=O (centres unmarked) [Compound F11],45.0,25,
O=C(N[C@H]1CCOC1=O)c1ccc(Oc2ccc(Br)cc2)cc1 [Compound Q10],64,-40,
CCCCCCCCOc1ccc(C(=O)N[C@H]2CCOC2=O)cc1 [Compound Q9],62,-20,
Nc1ccc(CC(=O)N[C@H]2CCOC2=O)cc1 [Compound C21],21,-20,
"CCCCCCCCCC(O)CC(=O)N[C@H]1CCOC1=O (some centres unmarked) [3’OH-C12-AHL, reference compound]",52,0.0,
O=C(Cc1ccccc1F)N[C@H]1CCOC1=O [Compound C4],0.1,3.0,CepR antagonism in words ([2]; Ec-reporter): inactive as antagonists
O=C(Cc1ccc(C(F)(F)F)cc1)N[C@H]1CCOC1=O [Compound C20],0.3,-52,
CCCCCC(=O)CC(=O)N[C@@H]1CCOC1=O [D-3’O-C8-AHL],85,-40,"CepR agonism in words ([1]; Ec-reporter): inactive; EC50 ([1]; Ec-reporter, agonism dose-response): ≥ 27 µM; Maximal Activation (%) ([1]; Ec-reporter): 85%"
O=C(N[C@H]1CCOC1=O)c1cccc(Br)c1 [Compound Q2],4.9,-30,
